In the test the target is T1, PAR2 (Homo sapiens, UniProt P55085).
T1 construct: HEK293 cell lines derived from human embryonic kidney cultured in a MEM culture medium; endogenous in cells; host or cells: HEK293
T1 sequence (P55085 26-397): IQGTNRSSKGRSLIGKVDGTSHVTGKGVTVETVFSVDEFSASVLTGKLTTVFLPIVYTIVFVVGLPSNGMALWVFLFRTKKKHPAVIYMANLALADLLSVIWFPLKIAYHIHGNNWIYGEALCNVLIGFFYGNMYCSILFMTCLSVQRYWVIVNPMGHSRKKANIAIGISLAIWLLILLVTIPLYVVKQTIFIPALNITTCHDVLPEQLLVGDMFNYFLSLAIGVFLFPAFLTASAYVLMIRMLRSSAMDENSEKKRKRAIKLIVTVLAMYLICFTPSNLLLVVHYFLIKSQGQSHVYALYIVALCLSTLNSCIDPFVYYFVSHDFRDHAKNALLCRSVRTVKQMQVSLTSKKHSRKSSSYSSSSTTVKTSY
The experiment in a line: Intracellular calcium concentration measurement (SLIGKV-NH2-induced calcium change, Fluo-8, FDSS/μCELL). The class given is cell-based. To be noted: for pIC50: HEK293 cells, SLIGKV-NH2 10 μM-induced intracellular calcium change, read-out: IC50. On the technique in general: Calcium assays in cells follow changes in intracellular calcium, usually with a dye or a luminescent sensor.

This note sets out measurements from patent publication US20240376109A1, “PYRAZOLO[1,5-A]PYRIMIDINE COMPOUND FOR THE TREATMENT OF DERMAL DISORDERS” (OTSUKA PHARMACEUTICAL CO., LTD., priority 2021, published 2024).

pIC50: −log10 of the molar value. Read-outs that look alike come from different tables or passages of the source.

Turning to `O=C(c1cc2nc(C3C4CC5CC(C4)CC3C5)cc(C(F)(F)F)n2n1)N1CCCCCC1` (stereo not shown) [Example 84], the pIC50 – broadly, the negative decadic logarithm of the IC50, by convention in mol/L – was 6.56.
Still for that read-out and setting: to `O=C(c1cc2nc(C34CCC(CC3)CC4)cc(C(F)(F)F)n2n1)N1CCCCCC1` [Example 85] belongs 6.51; to `CC(C)c1cc(COC2CCCC2)nc2cc(C(=O)N3CCCCC3(C)C)nn12` [Example 86], 6.47.
`CCCN(CCC)c1cc(CC2CCCCC2)nc2cc(C(=O)N3CCCCCC3)nn12` [Example 89, azepan-1-yl-[5-(cyclohexylmethyl)-7-(dipropylamino)pyrazolo[1,5-a]pyrimidin-2-yl]methanone]: the IC50 (in general, the concentration needed to halve the response being measured) (IC50 (nM)) was determined as 243 nM.
On to `CC(C)c1cc(CC2CCCCC2)nc2cc(C(=O)N3CCCCCO3)nn12` [Example 91], for which the pIC50 is 6.28.
Turning to `CC(C)c1cc(C(C)C2CCCCC2)nc2cc(C(=O)N3CCCCCC3)nn12` (stereo not shown) [Example 93], the pIC50 was 6.63.
For `O=C(c1cc2nc(N3CCCCC3)cc(C(F)(F)F)n2n1)N1CCCCCC1` [Example 95], the pIC50 was 6.13.
With `CC1(C)C(=O)CCCN1C(=O)c1cc2nc(C34CC5CC(CC(C5)C3)C4)cc(C(F)(F)F)n2n1` [Example 96], the pIC50 was 8.00.
With `CC(C)c1cc(C23CC4CC(CC(C4)C2)C3)nc2cc(C(=O)N3CCCC(O)C3(C)C)nn12` (stereo not shown) [Example 97], the pIC50 was 7.70.
Same read-out and setting: under `CC(C)c1cc(CC2(C)CCCCC2)nc2cc(C(=O)N3CCCCCC3)nn12` [Example 98] stands 6.57; under `Cc1cc(CC2CCCCC2)nc2cc(C(=O)N3CCCCC3(C)C)nn12` [Example 99], 6.47; under `CC1(C)C(O)CCCN1C(=O)c1cc2nc(C34CC5CC(CC(C5)C3)C4)cc(C(F)(F)F)n2n1` (stereo not shown) [Example 100], 7.64.
Consider `CC(C)(C)c1cc(C23CC4CC(CC(C4)C2)C3)nc2cc(C(=O)N3CCNCC3(C)C)nn12` [Example 101], for which the pIC50 was 7.15.
For `CC1(C)CC(O)CCN1C(=O)c1cc2nc(C34CC5CC(CC(C5)C3)C4)cc(C(F)(F)F)n2n1` (stereo not shown) [Example 102], the pIC50 was 7.43.
In the case of `CC(C)c1cc(CC2CCCC2)nc2cc(C(=O)N3CCCC(=O)C3(C)C)nn12` [Example 103], the pIC50 was 7.20.
On the same count and under the same terms, to `CCC(CC)c1cc(CC2CCCC2)nc2cc(C(=O)N3CCCC(O)C3(C)C)nn12` (stereo not shown) [Example 104] belongs 7.34; to `CCC(CC)c1cc(CC2CCCC2)nc2cc(C(=O)N3CCC(O)CC3(C)C)nn12` (stereo not shown) [Example 106], 7.02.
Take `CC(C)c1cc(CC2CCCCC2)nc2cc(C(=O)N3CCCC(C)(O)C3(C)C)nn12` (stereo not shown) [Example 107]: the negative-log IC50 (pIC50) is 7.17.
Turning to `CC1(C)CSCCN1C(=O)c1cc2nc(CC3CCCC3)cc(C(F)(F)F)n2n1` [Example 108], the pIC50 is 7.11.
As to `CC1CCC(Cc2cc(C(C)C)n3nc(C(=O)N4CCCCC4(C)C)cc3n2)CC1` (stereo not shown) [Example 109], the pIC50 is 7.07.
On the same count and under the same terms, to `CC1(C)C(O)CCCN1C(=O)c1cc2nc(C3CCCCC3)cc(C(F)(F)F)n2n1` (stereo not shown) [Example 111] belongs 6.60; to `CC1(C)CCCCN1C(=O)c1cc2nc(C3C4CC5CC(C4)CC3C5)cc(C(F)(F)F)n2n1` (stereo not shown) [Example 112], 6.95; to `COC1CCN(C(=O)c2cc3nc(CC4CCCC4)cc(C(F)(F)F)n3n2)C(C)(C)C1` (stereo not shown) [Example 113], 6.58.
With `COC1CCN(C(=O)c2cc3nc(CC4CCCC4)cc(C(C)C)n3n2)C(C)(C)C1` (stereo not shown) [Example 114], the pIC50 was 6.63.
Still for that read-out and setting: under `O=C(c1cc2nc(CC3CCCCC3)cc(C3CCCCCC3)n2n1)N1CCCCCC1` [Example 115] stands 6.63; under `COCCN1CCN(C(=O)c2cc3nc(CC4CCCCC4)cc(C(C)C)n3n2)C(C)(C)C1` [Example 116, [5-(cyclohexylmethyl)-7-propan-2-ylpyrazolo[1,5-a]pyrimidin-2-yl]-[4-(2-methoxyethyl)-2,2-dimethylpiperazin-1-yl]methanone], 6.63; under `CC(C)c1cc(CC2CCCCC2)nc2cc(C(=O)N3CCC(O)CC3(C)C)nn12` (stereo not shown) [Example 118], 6.60.
In the case of `CC(C)c1cc(CC2CCCCC2)nc2cc(C(=O)N3CCC(C)(C)C(=O)C3(C)C)nn12` [Example 119], the pIC50 was 6.73.
The same measure, in the same setting: under `CC(C)c1cc(CC2CCCCC2)nc2cc(C(=O)N3CCC(C)(C)C(O)C3(C)C)nn12` (stereo not shown) [Example 120] stands 6.53.
For the compound `CCc1cc(C2CCCCC2)nc2cc(C(=O)N3CCCCC3(C)C)nn12` [Example 121], the pIC50 was 6.61.
With `COC1(C)CCCN(C(=O)c2cc3nc(CC4CCCCC4)cc(C(C)C)n3n2)C1(C)C` (stereo not shown) [Example 122], the pIC50 is 6.75.
As to `CC(C)c1cc(CC2CCCC2)nc2cc(C(=O)N3CC=CCCC3)nn12` [Example 123], the pIC50 was 6.87.
As to `CCC(C)c1cc(CC2CCCCC2)nc2cc(C(=O)N3CCCCC3(C)C)nn12` (stereo not shown) [Example 124], the pIC50 was 6.84.
As for `CC(C)c1cc(CC2CCCCC2)nc2cc(C(=O)N3CCSCC3)nn12` [Example 125], the pIC50 was 6.59.
For the compound `CC(C)c1cc(CC2CCCCC2)nc2cc(C(=O)N3CC=CCCC3)nn12` [Example 126], the pIC50 was 6.68.
With `CC1CCCN(C(=O)c2cc3nc(CC4CCCC4)cc(C(C)C)n3n2)CC1` (stereo not shown) [Example 127], the pIC50 is 6.64.
Turning to `CCC(C)c1cc(CC2CCCCC2)nc2cc(C(=O)N3CCSCC3)nn12` (stereo not shown) [Example 128], the negative-log IC50 (pIC50) was 6.82.
On the same count and under the same terms, under `C=C1CCCN(C(=O)c2cc3nc(CC4CCCC4)cc(C(C)C)n3n2)C1(C)C` [Example 129] stands 6.68.
For the compound `CCC(CC)c1cc(CC2CCCCCC2)nc2cc(C(=O)N3CCCCC3(C)C)nn12` [Example 130], the pIC50 was 6.53.
For `CCCN(CC)c1cc(CC2CCCCC2)nc2cc(C(=O)N3CCCCCC3)nn12` [Example 131], the pIC50 is 6.65.
Regarding `CC1CCC(Cc2cc(C(C)C)n3nc(C(=O)N4CCCCC4)cc3n2)CC1` (stereo not shown) [Example 132], the pIC50 was 6.71.
The same measure, in the same setting: to `CCCCCc1cc(C23CC4CC(CC(C4)C2)C3)nc2cc(C(=O)N3CCCCCC3)nn12` [Example 133] belongs 6.44; to `O=C(c1cc2nc(CC3CCCC3)cc(C3CCCCC3)n2n1)N1CCCCCC1` [Example 134], 6.42.
As to `CCCN(C)c1cc(CC2CCCCC2)nc2cc(C(=O)N3CCCCCC3)nn12` [Example 135], the pIC50 is 6.41.
In the case of `CCc1cc(C2CCCCCC2)nc2cc(C(=O)N3CCCCCC3)nn12` [Example 136], the pIC50 is 6.34.
As to `O=C(c1cc2nc(CC3CCCCC3)cc(C3CCC3)n2n1)N1CCCCCC1` [Example 137], the pIC50 was 6.32.
Turning to `CCC1CCC(Cc2cc(C(C)C)n3nc(C(=O)N4CCCCC4)cc3n2)CC1` (stereo not shown) [Example 138], the pIC50 is 7.14.
Take `CCC1CCC(Cc2cc(C(C)C)n3nc(C(=O)N4CCCCCC4)cc3n2)CC1` (stereo not shown) [Example 139]: the pIC50 is 7.02.
Take `CC(C)c1cc(CC2CCCCC2)nc2cc(C(=O)N3CCCCC3)nn12` [Example 140]: the pIC50 was 6.58.
Regarding `CCC(C)c1cc(CC2CCCC2)nc2cc(C(=O)N3CCCCC3)nn12` (stereo not shown) [Example 141], the negative-log IC50 (pIC50) is 6.52.
For the compound `CC(C)c1cc(CC2CCCCC2)nc2cc(C(=O)N3CCCC(F)(F)CC3)nn12` [Example 142], the pIC50 was 6.77.
Take `CCC(C)c1cc(CC2CCCCC2)nc2cc(C(=O)N3CCCCCCC3)nn12` (stereo not shown) [Example 143]: the pIC50 is 7.04.
